Results on ten compounds are retold here after US4311698A, “Aminoacid derivatives of cephalosporin compounds” (priority 1980, dated 1982).

In brackets after ≈: the same amount, converted by molar mass. A value given as a limit tells only on which side of the number the result lay.

Holding throughout (type): cell-based
For one assay, the system named is E. Coli. Vogel. Briefly: In vitro minimal inhibitory concentration, E. Coli. Vogel. The note with it: Escherichia coli.
A further assay deals with Pseudomonas BRK 12-4-4. Briefly: In vitro minimal inhibitory concentration, Pseudomonas BRK 12-4-4. The note with it: BRK1244.
Another assay relates to Serr. Mar. IMM 16. Briefly: In vitro minimal inhibitory concentration, Serr. Mar. IMM 16.
For a further assay, the system named is Strep. fec. MGH 2. Kind of assay: In vitro minimal inhibitory concentration, Strep. fec. MGH 2.
The subject of the next assay is Staph S 18713. Kind of assay: In vitro minimal inhibitory concentration, Staph S 18713.
The test system of another assay is Prot Vulg. Kind of assay: In vitro minimal inhibitory concentration, Prot Vulg.
In the next assay the test system is Pseudomonas UI 18. Briefly: In vitro minimal inhibitory concentration, Pseudomonas UI 18. The note with it: UI18.
A further assay deals with E. Coli. Brig. Briefly: In vitro minimal inhibitory concentration, E. Coli. Brig. Conditions: Escherichia coli.
The next assay deals with Staph UC76. Briefly: In vitro minimal inhibitory concentration, Staph UC76.
The next assay has as its system Pseudomonas #28. Kind of assay: In vitro minimal inhibitory concentration, Pseudomonas #28. The note with it: Pseudomonas #28; in vitro; read-out: Minimal Inhibitory Concentration.
In another assay the test system is Klebs. Pneum. MGH 2. Briefly: In vitro minimal inhibitory concentration, Klebs. Pneum. MGH 2.
The subject of another assay is Entero Cloac. IM 11. Kind of assay: In vitro minimal inhibitory concentration, Entero Cloac. IM 11.

In the case of `O=C(O)Cn1nnnc1SCC1=C(C(=O)O)N2C(=O)C(NC(=O)[C@H](NC(=O)c3ccc(-c4ccc(NC(=O)[C@@H]5CCC(=O)N5)cc4)[nH]c3=O)c3ccccc3)C2SC1` (stereo partly drawn) [Example 16, N-[6-[4-(L-Pyroglutamylamino)phenyl]-1,2-dihydro-2-oxonicotinyl]-7-[D-2-amino-2-phenylacetamido]-3-[[(1-carboxymethyl-1H-tetrazol-5-yl)thio]methyl]-3-cephem-4-carboxylic acid], the MIC against E. Coli. Vogel was determined as 0.4 µg/mL (≈ 0.483 µM); against Pseudomonas BRK 12-4-4, 6.3 µg/mL (≈ 7.6 µM); in the assay with Serr. Mar. IMM 16, 6.3 µg/mL (≈ 7.6 µM); with Strep. fec. MGH 2, 50 µg/mL (≈ 60.3 µM); against Staph S 18713 it was 12.5 µg/mL (≈ 15.1 µM); in the assay with Prot Vulg., 0.4 µg/mL (≈ 0.483 µM). The MIC in the assay on Pseudomonas UI 18 turned out to be 6.3 µg/mL (≈ 7.6 µM); in the assay with E. Coli. Brig, 3.1 µg/mL (≈ 3.74 µM); against Staph UC76 it was 3.1 µg/mL (≈ 3.74 µM); in the assay on Pseudomonas #28, 3.1 µg/mL (≈ 3.74 µM); in the assay with Klebs. Pneum. MGH 2, 0.8 µg/mL (≈ 0.965 µM); with Entero Cloac. IM 11, 3.1 µg/mL (≈ 3.74 µM).
As to `CC(=O)N[C@H](CCC(N)=O)C(=O)Nc1ccc(-c2ccc(C(=O)N[C@@H](C(=O)NC3C(=O)N4C(C(=O)O)=C(CSc5nnnn5CC(=O)O)CSC34)c3ccccc3)c(=O)[nH]2)cc1` (stereo partly drawn) [Example 37, N-[6-[4-(N-Acetyl-D-glutaminylamino)phenyl]-1,2-dihydro-2-oxonicotinyl]-7-[D-2-amino-2-phenylacetamido]-3-[[(1-carboxymethyl-1H-tetrazol-5-yl)thio]methyl]-3-cephem-4-carboxylic acid], the MIC is 0.8 µg/mL (≈ 0.901 µM) in the assay with E. Coli. Vogel; 12.5 µg/mL (≈ 14.1 µM) with Pseudomonas BRK 12-4-4; 12.5 µg/mL (≈ 14.1 µM) with Serr. Mar. IMM 16; above 50 µg/mL against Strep. fec. MGH 2; 3.1 µg/mL (≈ 3.49 µM) with Prot Vulg.; 12.5 µg/mL (≈ 14.1 µM) against Pseudomonas UI 18. Moreover, the MIC against E. Coli. Brig came out at 6.3 µg/mL (≈ 7.1 µM); in the assay on Staph UC76 it was 6.3 µg/mL (≈ 7.1 µM); in the assay with Pseudomonas #28, 6.3 µg/mL (≈ 7.1 µM); against Klebs. Pneum. MGH 2, 3.1 µg/mL (≈ 3.49 µM); with Entero Cloac. IM 11, 6.3 µg/mL (≈ 7.1 µM).
For `CC(=O)N1CC(O)C[C@H]1C(=O)Nc1ccc(-c2ccc(C(=O)N[C@@H](C(=O)NC3C(=O)N4C(C(=O)O)=C(CSc5nnnn5CC(=O)O)CSC34)c3ccccc3)c(=O)[nH]2)cc1` (stereo partly drawn) [Example 30, N-[6-[4-(N-Acetyl-4-hydroxy-L-prolylamino)phenyl]-1,2-dihydro-2-oxonicotinyl]-7-[D-2-amino-2-phenylacetamido]-3-[[(1-carboxymethyl-1H-tetrazol-5-yl)thio]methyl]-3-cephem-4-carboxylic acid], the MIC in the assay with E. Coli. Vogel is 0.8 µg/mL (≈ 0.916 µM); in the assay with Pseudomonas BRK 12-4-4, 12.5 µg/mL (≈ 14.3 µM); against Serr. Mar. IMM 16, 12.5 µg/mL (≈ 14.3 µM); with Strep. fec. MGH 2 it was above 50 µg/mL; in the assay with Staph S 18713, 25 µg/mL (≈ 28.6 µM); in the assay on Prot Vulg., 1.6 µg/mL (≈ 1.83 µM). For the same compound, the MIC with Pseudomonas UI 18 was found to be 6.3 µg/mL (≈ 7.22 µM); in the assay on E. Coli. Brig it was 3.1 µg/mL (≈ 3.55 µM); with Staph UC76, 6.3 µg/mL (≈ 7.22 µM); in the assay with Pseudomonas #28 it was 6.3 µg/mL (≈ 7.22 µM); against Klebs. Pneum. MGH 2 it was 1.6 µg/mL (≈ 1.83 µM); against Entero Cloac. IM 11, 3.1 µg/mL (≈ 3.55 µM).
`CC(=O)OCC1=C(C(=O)O)N2C(=O)C(NC(=O)[C@H](NC(=O)c3ccc(-c4ccc(NC(=O)[C@@H]5CC(O)CN5C(C)=O)cc4)[nH]c3=O)c3ccccc3)C2SC1` (stereo partly drawn) [Example 31, N-[6-[4-(N-Acetyl-4-hydroxy-L-prolylamino)phenyl]-1,2-dihydro-2-oxonicotinyl]-7-[D-2-amino-2-phenylacetamido]-3-acetoxymethyl-3-cephem-4-carboxylic acid]: the MIC was 3.1 µg/mL (≈ 4.01 µM) in the assay on E. Coli. Vogel; 12.5 µg/mL (≈ 16.2 µM) in the assay on Pseudomonas BRK 12-4-4; above 50 µg/mL against Serr. Mar. IMM 16; 25 µg/mL (≈ 32.4 µM) in the assay with Strep. fec. MGH 2; 25 µg/mL (≈ 32.4 µM) with Staph S 18713; 25 µg/mL (≈ 32.4 µM) against Prot Vulg.. In addition, the MIC with Pseudomonas UI 18 is 12.5 µg/mL (≈ 16.2 µM); against E. Coli. Brig, 12.5 µg/mL (≈ 16.2 µM); in the assay on Staph UC76, 0.8 µg/mL (≈ 1.04 µM); with Pseudomonas #28 it was 12.5 µg/mL (≈ 16.2 µM); in the assay with Klebs. Pneum. MGH 2, 6.3 µg/mL (≈ 8.15 µM); against Entero Cloac. IM 11, 12.5 µg/mL (≈ 16.2 µM).
On to `CC(=O)OCC1=C(C(=O)O)N2C(=O)C(NC(=O)[C@H](NC(=O)c3ccc(-c4ccc(NC(=O)C5CCCN5C(C)=O)cc4)[nH]c3=O)c3ccccc3)C2SC1` (mixture of isomers) [Example 17, N-[6-[4-(N-Acetyl-DL-prolylamino)phenyl]-1,2-dihydro-2-oxonicotinyl]-7-[D-2-amino-2-phenylacetamido]-3-acetoxymethyl-3-cephem-4-carboxylic acid], for which the MIC in the assay with E. Coli. Vogel came out at 3.1 µg/mL; against Pseudomonas BRK 12-4-4 it was 25 µg/mL; with Serr. Mar. IMM 16 it was 50 µg/mL; with Strep. fec. MGH 2, 50 µg/mL; with Staph S 18713 it was 3.1 µg/mL; in the assay with Prot Vulg., 25 µg/mL. The MIC against Pseudomonas UI 18 turned out to be 12.5 µg/mL; in the assay on E. Coli. Brig, 25 µg/mL; in the assay with Staph UC76 it was 1.6 µg/mL; in the assay with Pseudomonas #28 it was 12.5 µg/mL; in the assay on Klebs. Pneum. MGH 2, 12.5 µg/mL; in the assay with Entero Cloac. IM 11, 25 µg/mL.
`CC(=O)N[C@H](C)C(=O)Nc1ccc(-c2ccc(C(=O)N[C@@H](C(=O)NC3C(=O)N4C(C(=O)O)=C(COC(N)=O)CSC34)c3ccccc3)c(=O)[nH]2)cc1` (stereo partly drawn) [Example 24, N-[6-[4(N-Acetyl-D-alanylamino)phenyl]-1,2-dihydro-2-oxonicotinyl]-7-[D-2-amino-phenylacetamido]-3-carbamoyloxymethyl-3-cephem-4-carboxylic acid]: the MIC with E. Coli. Vogel was 6.3 µg/mL (≈ 8.61 µM); with Pseudomonas BRK 12-4-4, 12.5 µg/mL (≈ 17.1 µM); against Serr. Mar. IMM 16, above 50 µg/mL; in the assay on Strep. fec. MGH 2, 25 µg/mL (≈ 34.2 µM); in the assay with Prot Vulg., 12.5 µg/mL (≈ 17.1 µM); with Pseudomonas UI 18, 12.5 µg/mL (≈ 17.1 µM). In addition, the MIC in the assay with E. Coli. Brig worked out at 25 µg/mL (≈ 34.2 µM); against Staph UC76, 0.4 µg/mL (≈ 0.547 µM); in the assay on Pseudomonas #28 it was 12.5 µg/mL (≈ 17.1 µM); against Klebs. Pneum. MGH 2 it was 12.5 µg/mL (≈ 17.1 µM); against Entero Cloac. IM 11, 25 µg/mL (≈ 34.2 µM).
In the case of `CC(=O)NC(C)C(=O)Nc1ccc(-c2ccc(C(=O)N[C@@H](C(=O)NC3C(=O)N4C(C(=O)O)=C(COC(C)=O)CSC34)c3ccccc3)c(=O)[nH]2)cc1` (mixture of isomers) [Example 3, N-[6-[4-(N-Acetyl-DL-alanylamino)phenyl]-1,2-dihydro-2-oxonicotinyl]-7-[D-2-amino-2-phenylacetamido]-3-acetoxymethyl cephem-4-carboxylic acid], the MIC with E. Coli. Vogel came to 3.1 µg/mL; with Pseudomonas BRK 12-4-4 it was 12.5 µg/mL; in the assay with Serr. Mar. IMM 16 it was 25 µg/mL; in the assay with Strep. fec. MGH 2, 25 µg/mL; against Prot Vulg., 25 µg/mL; with Pseudomonas UI 18 it was 6.3 µg/mL. Further, the MIC in the assay on E. Coli. Brig is 12.5 µg/mL; against Staph UC76, 0.4 µg/mL; in the assay with Pseudomonas #28, 12.5 µg/mL; against Klebs. Pneum. MGH 2 it was 6.3 µg/mL; in the assay with Entero Cloac. IM 11, 25 µg/mL.
Regarding `CC(=O)N[C@H](C)C(=O)Nc1ccc(-c2ccc(C(=O)N[C@@H](C(=O)NC3C(=O)N4C(C(=O)O)=C(COC(C)=O)CSC34)c3ccccc3)c(=O)[nH]2)cc1` (stereo partly drawn) [Example 4, N-[6-[4-(N-Acetyl-D-alanylamino)phenyl]-1,2-dihydro-2-oxonicotinyl]-7-[D-2-amino-2-phenylacetamido]-3-acetoxymethyl-3-cephem-4-carboxylic acid], the MIC came out at 3.1 µg/mL (≈ 4.24 µM) against E. Coli. Vogel; 12.5 µg/mL (≈ 17.1 µM) with Pseudomonas BRK 12-4-4; 50 µg/mL (≈ 68.4 µM) against Serr. Mar. IMM 16; 25 µg/mL (≈ 34.2 µM) in the assay on Strep. fec. MGH 2; 25 µg/mL (≈ 34.2 µM) against Prot Vulg.; 6.3 µg/mL (≈ 8.62 µM) in the assay with Pseudomonas UI 18. Besides, the MIC is 12.5 µg/mL (≈ 17.1 µM) in the assay on E. Coli. Brig; 0.8 µg/mL (≈ 1.09 µM) with Staph UC76; 6.3 µg/mL (≈ 8.62 µM) in the assay on Pseudomonas #28; 6.3 µg/mL (≈ 8.62 µM) with Klebs. Pneum. MGH 2; 12.5 µg/mL (≈ 17.1 µM) against Entero Cloac. IM 11.
Consider `CC(=O)N[C@@H](CCC(N)=O)C(=O)Nc1ccc(-c2ccc(C(=O)N[C@@H](C(=O)NC3C(=O)N4C(C(=O)O)=C(CSc5nnnn5CC(=O)O)CSC34)c3ccccc3)c(=O)[nH]2)cc1` (stereo partly drawn) [Example 21, N-[6-[4-(N-Acetyl-L-glutaminylamino)phenyl]-1,2-dihydro-2-oxonicotinyl]-7-[D-2-amino-2-phenylacetamido]-3-[[(1-carboxymethyl-1H-tetrazol-5-yl)thio]methyl]-3-cephem-4-carboxylic acid], for which the MIC was found to be 3.1 µg/mL (≈ 3.49 µM) against E. Coli. Vogel; 12.5 µg/mL (≈ 14.1 µM) with Pseudomonas BRK 12-4-4; 12.5 µg/mL (≈ 14.1 µM) against Serr. Mar. IMM 16; 50 µg/mL (≈ 56.3 µM) with Strep. fec. MGH 2; 3.1 µg/mL (≈ 3.49 µM) in the assay on Prot Vulg.; 6.3 µg/mL (≈ 7.1 µM) in the assay with Pseudomonas UI 18. Moreover, the MIC with E. Coli. Brig is 3.1 µg/mL (≈ 3.49 µM); in the assay on Staph UC76 it was 6.3 µg/mL (≈ 7.1 µM); in the assay with Pseudomonas #28, 6.3 µg/mL (≈ 7.1 µM); against Klebs. Pneum. MGH 2, 3.1 µg/mL (≈ 3.49 µM); in the assay with Entero Cloac. IM 11 it was 6.3 µg/mL (≈ 7.1 µM).
For the compound `CC(=O)N[C@@H](C)C(=O)Nc1ccc(-c2ccc(C(=O)N[C@@H](C(=O)NC3C(=O)N4C(C(=O)O)=C(CSc5nnnn5C)CSC34)c3ccccc3)c(=O)[nH]2)cc1` (stereo partly drawn) [Example 20, N-[6-[4-(N-Acetyl-L-alanylamino)phenyl]-1,2-dihydro-2-oxonicotinyl]7-[D-2-amino-2-phenylacetamido]-3-[[(1-methyl-1H-tetrazol-5-yl)thio]methyl]-3-cephem-4-carboxylic acid], the MIC worked out at 1.6 µg/mL (≈ 2.03 µM) with E. Coli. Vogel; 12.5 µg/mL (≈ 15.9 µM) against Pseudomonas BRK 12-4-4; 25 µg/mL (≈ 31.8 µM) against Serr. Mar. IMM 16; 25 µg/mL (≈ 31.8 µM) in the assay with Strep. fec. MGH 2; 12.5 µg/mL (≈ 15.9 µM) in the assay with Prot Vulg.; 12.5 µg/mL (≈ 15.9 µM) in the assay with Pseudomonas UI 18. For the same compound, the MIC came to 6.3 µg/mL (≈ 8.01 µM) in the assay on E. Coli. Brig; 1.6 µg/mL (≈ 2.03 µM) against Staph UC76; 12.5 µg/mL (≈ 15.9 µM) with Pseudomonas #28; 1.6 µg/mL (≈ 2.03 µM) in the assay with Klebs. Pneum. MGH 2; 6.3 µg/mL (≈ 8.01 µM) with Entero Cloac. IM 11.
